According to US11130761B2, “Substituted pyrrolo[2,1-f][1,2,4]triazines as FGFR inhibitors” (CSPC ZHONGQI PHARMACEUTICAL TECHNOLOGY (SHIJIAZHUANG) CO., …, priority 2016, dated 2021):

How the values were obtained:
human FGFR4 = molecular target: T1, human FGFR4 (Homo sapiens, UniProt P22455); assay: 33P isotope-labeled kinase activity assay (Reaction Biology Corp), FGFR4; type: biochemical; conditions: for IC50: 33P-ATP kinase assay, ATP 100 μM, kinase 2.5 nM, substrate pEY + Mn, 120 minutes at room temperature; for Inhibition activity difference (IC50 ratio) FGFR4/FGFR1: ratio of FGFR4 IC50 to FGFR1 IC50
T1 construct: purchased Invitrogen P3054
T1 sequence (P22455 22-802): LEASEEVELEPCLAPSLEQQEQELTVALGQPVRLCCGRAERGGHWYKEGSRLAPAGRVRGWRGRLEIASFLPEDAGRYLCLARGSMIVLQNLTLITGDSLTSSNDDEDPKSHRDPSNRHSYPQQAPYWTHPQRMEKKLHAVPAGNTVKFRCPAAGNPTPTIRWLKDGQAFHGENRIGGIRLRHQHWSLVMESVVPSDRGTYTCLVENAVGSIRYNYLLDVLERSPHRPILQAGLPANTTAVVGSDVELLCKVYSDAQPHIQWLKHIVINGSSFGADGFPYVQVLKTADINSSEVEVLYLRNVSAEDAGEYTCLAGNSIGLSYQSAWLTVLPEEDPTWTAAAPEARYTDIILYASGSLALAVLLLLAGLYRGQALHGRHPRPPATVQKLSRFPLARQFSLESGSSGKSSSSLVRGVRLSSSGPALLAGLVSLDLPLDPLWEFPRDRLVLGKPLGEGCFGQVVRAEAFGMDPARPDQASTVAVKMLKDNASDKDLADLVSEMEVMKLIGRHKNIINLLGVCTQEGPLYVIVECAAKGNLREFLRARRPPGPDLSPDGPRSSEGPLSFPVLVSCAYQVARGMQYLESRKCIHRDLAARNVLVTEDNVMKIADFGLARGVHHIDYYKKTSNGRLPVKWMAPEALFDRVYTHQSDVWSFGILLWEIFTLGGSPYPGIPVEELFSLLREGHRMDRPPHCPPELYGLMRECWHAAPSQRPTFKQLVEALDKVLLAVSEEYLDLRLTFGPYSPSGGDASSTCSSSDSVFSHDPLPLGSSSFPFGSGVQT
Description: (§1) The IC50 value was determined by ^33P isotope-labeled kinase activity assay (Reaction Biology Corp) to evaluate the inhibitory activity of the test compounds on human FGFR1 and FGFR4.
(§2) Buffer: 20 mM Hepes (pH 7.5), 10 mM MgCl2, 1 mM EGTA, 0.02% Brij35, 0.02 mg/mL BSA, 0.1 mM Na3VO4, 2 mM DTT, 1% DMSO.
(§3) Test procedure: the test compound was dissolved in DMSO at room temperature to prepare a 10 mM solution for use. The substrate was dissolved in a freshly prepared buffer, followed by addition of the kinase to be tested and the resulting mixture was thoroughly mixed. The solution of the test compound in DMSO was added to the above reaction solution by acoustic technique (Echo 550). The concentration of the compound in the reaction solution was 10 μM, 3.33 μM, 1.11 μM, 0.370 μM, 0.123 μM, 41.2 nM, 13.7 nM, 4.57 nM, 1.52 nM, 0.508 nM, or […], 39.1 nM, 9.8 nM, 2.4 nM, 0.61 nM, 0.15 nM, 0.038 nM. After incubation for 15 minutes, ^33P-ATP (activity 0.01 μCi/μL, corresponding concentration was listed in table 1) was added to initiate the reaction. The reaction was allowed to proceed at room temperature for 120 minutes, then the reaction solution was spotted on P81 ion exchange filter paper (Whatman #3698-915). After the filter paper was washed with 0.75% phosphoric acid solution, the radioactivity of the remained phosphorylated substrate on the filter paper was determined. The kinase activity data was expressed as a ratio of the kinase activity of the test compound to the kinase activity of the control group (DMSO), and the IC50 value was obtained by curve fitting using Prism4 software (GraphPad).

human FGFR1 = molecular target: T2, human FGFR1 (Homo sapiens, UniProt P11362); assay: 33P isotope-labeled kinase activity assay (Reaction Biology Corp), FGFR1; type: biochemical; conditions: 33P-ATP kinase assay, ATP 5 μM, kinase 1.75 nM, substrate pEY + Mn, 120 minutes at room temperature
T2 construct: purchased Invitrogen PV3146
T2 sequence (P11362 22-822): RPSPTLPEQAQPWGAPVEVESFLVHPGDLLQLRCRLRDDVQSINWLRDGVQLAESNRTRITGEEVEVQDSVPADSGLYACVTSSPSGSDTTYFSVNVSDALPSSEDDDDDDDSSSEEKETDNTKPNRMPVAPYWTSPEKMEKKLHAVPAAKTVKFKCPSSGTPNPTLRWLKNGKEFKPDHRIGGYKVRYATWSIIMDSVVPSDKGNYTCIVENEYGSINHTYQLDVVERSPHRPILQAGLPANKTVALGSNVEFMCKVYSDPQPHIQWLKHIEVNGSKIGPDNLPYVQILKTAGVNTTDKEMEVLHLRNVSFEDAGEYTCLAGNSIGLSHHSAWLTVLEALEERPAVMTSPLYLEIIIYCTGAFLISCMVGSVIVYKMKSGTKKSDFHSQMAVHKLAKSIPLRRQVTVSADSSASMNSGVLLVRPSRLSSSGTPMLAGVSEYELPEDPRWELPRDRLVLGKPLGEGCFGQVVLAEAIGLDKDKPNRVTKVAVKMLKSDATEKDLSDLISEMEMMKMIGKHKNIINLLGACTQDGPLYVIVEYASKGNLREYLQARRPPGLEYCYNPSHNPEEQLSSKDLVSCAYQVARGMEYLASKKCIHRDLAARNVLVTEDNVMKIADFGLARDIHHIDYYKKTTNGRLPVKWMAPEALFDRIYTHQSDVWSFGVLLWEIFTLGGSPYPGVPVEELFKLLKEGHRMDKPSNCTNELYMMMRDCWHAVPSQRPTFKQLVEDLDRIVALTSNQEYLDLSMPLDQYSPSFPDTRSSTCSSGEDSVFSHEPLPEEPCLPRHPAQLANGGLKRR
Description: as §1, §2, §3

| IC50 (human FGFR4) [nM] | Inhibition activity difference (IC50 ratio) FGFR4/FGFR1 (human FGFR4) | IC50 (human FGFR1) [nM] | SMILES |
| --- | --- | --- | --- |
| 0.08 | 1 | 0.07 | C=CC(=O)N1CCC(c2cc(C#Cc3c(F)c(OC)cc(OC)c3F)c3c(N)ncnn23)C1 (single isomer, unassigned) [Embodiment 4] |
| 6.6 | 9 | 0.7 | C=CC(=O)N1CCC(c2cc(C#Cc3c(F)c(OC)cc(OC)c3F)c3c(N)ncnn23)C1 (single isomer, unassigned) [Embodiment 3] |
| 450 | 21 | 21.8 | C=CC(=O)N1CCC(c2cc(C#Cc3c(Cl)c(OC)cc(OC)c3Cl)c3c(N)ncnn23)C1 (single isomer, unassigned) [Embodiment 5] |
| 125 | 7 | 18.3 | C=CC(=O)N1CCC(c2cc(C#Cc3cc(OC)cc(OC)c3)c3c(N)ncnn23)C1 (single isomer, unassigned) [Embodiment 1] |
| 4.6 | 15 | 0.3 | C=CC(=O)N1CCC(c2cc(C#Cc3c(Cl)c(OC)cc(OC)c3Cl)c3c(N)ncnn23)C1 (single isomer, unassigned) [Embodiment 6] |
